Data from patent publication US9416151B2, “Use of glycyrrhetinic acid, glycyrrhizic acid and related compounds for prevention and/or treatment of pulmonary fibrosis” (priority 2010, dated 2016).
Entries after “also recorded” stand apart in the source; their conditions may differ.

Tests used:
[1] = test system: inflammatory mediators (IMs), including IL1a, TNFa, PF4 and VCAM-1; assay: Inflammatory mediators in lung homogenates by ELISA, acute phase of IR-induced pneumonitis; format: in vivo, C57BL/6 fibrosis-prone mice; settings: 2.5 days after thoracic IR 15 Gy; treatment from 6 h after IR; vs vehicle, p<0.05
Method: (§1) Briefly, C57BL/6 fibrosis-prone mice received a single-dose of thoracic IR at 15 Gy with a dose rate of 1.9 Gy/min. Six hours after IR exposure, the mice were divided into the following treatment groups: 1) normal (received 0 Gy; no treatment); 2) vehicle-treated; 3) GA-treated (30-40 mg/kg/q.o.d) (i.e. every other day) (the GA dosage used herein was derived from the effective dosage for humans (3-4 mg/kg), which is typically 6-10 times lower than that of mice); 4) dexamethasone-treated (Positive Control 1) (Dex, 3 mg/kg, i.m. or p.o. qod); 5) amifostine-treated (Positive Control 2) (Ami, 200 mg/kg/ i.v, 0.5 hr prior to irradiation); and 6) celebrex-treated (Positive Control 3) (30 mg/kg, po, qod).
The mice were sacrificed 2.5 days after IR exposure, and fresh lung tissue homogenates were prepared using lysis buffer mixed with protenase inhibitor cocktails. After protein concentration was adjusted to 1 mg/ml, the fresh lung homogenates were added to ELISA plates at a concentration of 100 μl/well. The levels of inflammatory mediators were measured by ELISA.

[2] = test system: mice with IR-induced pneumonitis; assay: Lung morphology, plasma exudation and inflammatory cell infiltration, acute phase of IR-induced pneumonitis; format: in vivo, C57BL/6 fibrosis-prone mice; settings: 2.5 days after thoracic IR 15 Gy
Method: as §1
Briefly, C57BL/6 fibrosis-prone mice received a single-dose of thoracic IR at 15 Gy with a dose rate of 1.9 Gy/min and were treated as described in Example 2. The mice were sacrificed 2.5 days after IR exposure, and lung tissues were harvested and analyzed for morphological changes.

[3] = test system: mice with IR-induced pulmonary fibrosis; assay: Lung density by cone beam CT scan (CBCT); format: in vivo; settings: for lung density (abnormal increase): 7.5 months after IR 15 Gy, P<0.05
Method: To assess effects of GA on lung density, cone beam CT scan (CBCT) of mouse lungs was performed. CBCT provides a complete 3D 650×650×428 scan (i.e. 428 slices) of the lungs with isotropic resolution at 270 μm (central slice shown in FIG. 11) in 30 seconds. The scanner achieves a CT density sensitivity of ˜[…], and thus, changes in lung density can be discerned. The CBCT imaging data were further analyzed using MATLAB software. The lungs were automatically segmented (FIG. 12A) and a 3D image was generated for each mouse lung (FIG. 12B). To reduce the effect of cardiac motion on the mean value of lung density, boundaries of the lungs were not used for analysis. A histogram of voxel intensity (pulmonary tissue density) of each mouse was created (FIG. 13).

[4] = Toxicity of long-term use: activity, fur morphology, body weight; format: in vivo
[5] = test system: ACTH (adrenocorticotropic hormone); growth hormone (GH); settings: in vivo
Method: The chemical structure of GA is similar to that of cortisol. Thus, this Example investigates whether the long-term use of GA would affect the production of cortisol and cause side effects. The plasma levels of ACTH (adrenocorticotropic hormone), a […], were measured using ELISA at Weeks 6, 7, and 10 after GA-treatments (40 mg/kg, god, p.o).
In addition, plasma levels of growth hormone (GH) were measured using ELISA at Weeks 6, 7, and 10 after GA treatments.

[6] = test system: pulmonary fibrosis; assay: Inventors' observation on dexamethasone in pulmonary fibrosis; format: in vivo; settings: compared to non-treated controls
[7] = test system: SP-D and IL1a; assay: Plasma levels of SP-D and IL1a, acute phase of IR-induced pneumonitis; format: in vivo, C57BL/6 fibrosis-prone mice; settings: 2.5 days after thoracic IR; P<0.05
Method: as §1
IR damages lung epithelium and endothelium cells, and causes dysfunction of tight junction, increased cellular permeability, and the loss of integrity of the alveolar-capillary barrier. As a result, SP-D and IL1a abnormally enter into the blood from inflamed pulmonary tissue, leading to elevated plasma levels of SP-D and IL1a.
In this Example, C57BL/6 fibrosis-prone mice received a single-dose of thoracic IR at 15 Gy with a dose rate of 1.9 Gy/min and were treated as described in Example 2. The mice were sacrificed 2.5 days after IR exposure, and plasma levels of SP-D and IL1a were measured.

[8] = test system: mice with IR-induced pneumonitis; assay: Sub-acute phase of IR-induced pneumonitis: lung tissue and BALF assays; format: in vivo, C57BL/6 fibrosis-prone mice
Method: as §1
Briefly, C57BL/6 fibrosis-prone mice received a thoracic IR and were treated as described in Example 2. The mice were sacrificed 17 days after IR exposure, and lung tissues were harvested. Bronchoalveolar lavage fluid (BALF) assays were performed.

[9] = test system: IL1a, TNFa, lymphotactin and p-selectin; assay: Inflammatory mediators, sub-acute phase, GA administered 24 hours after IR exposure; format: in vivo, mice; settings: GA given 24 hours after thoracic IR at 5, 10 and 15 Gy
Method: The administration of GA 24 hours after IR exposure can effectively block the surge in inflammatory responses.

[10] = test system: mice with IR-induced pulmonary fibrosis; assay: Respiratory rate in IR-induced pulmonary fibrosis (ventilator with pressure plethysmograph); format: in vivo
Method: Mice exposed to thoracic IR develops pulmonary fibrosis 6 months after IR exposure at 18 Gy, 8 months after IR exposure at 15 Gy, and 10 months after IR exposure at 12.5 Gy. To access the treatment effects of GA on lung fibrosis and lung function, the respiratory rate, lung density, and lung compliance of the mice were determined.
To assess improvement on respiratory function, mice exposed to thoracic IR at 15 Gy were treated with GA (30-40 mg/kg) q.o.d. or twice/week for 3 months. Mouse respiratory rate was measured using a Harvard rodent ventilator connected to a pressure plethysmograph.

[11] = test system: mice with IR-induced pulmonary fibrosis; assay: Lung compliance (plethysmograph pressure-volume measurements); format: in vivo; settings: 6.5 months after IR 15 Gy; P<0.05
Method: To assess the effects of GA on lung compliance, mice were anesthetized and their trachea were surgically exposed and incised. An 18-gauge, 1 cm stainless steel tube was inserted into the trachea and secured with surgical sutures. The respiratory rate and tidal volume of the mice were measured by a Harvard rodent ventilator. The average respiratory rate was 150 breaths per minute and the tidal volume was adjusted according to the weight (0.01 ml per gram body weight). The mice were then placed in a plethysmograph for pressure-volume measurements.

[12] = test system: mice with IR-induced pulmonary fibrosis; assay: Lung histology (H&E, trichrome), hydroxyproline and TGFβ in IR-induced fibrosis; format: in vivo
Method: Briefly, mice treated with GA (40 mg/kg/q.o.d.) for 3 months were sacrificed 7 months after IR exposure at 15 Gy, and lung tissue specimens were stained using hematoxylin and eosin (H&E) stain.
To assess whether GA reduces abnormal collagen deposition in lungs, lung tissue specimen was stained with collagen-binding trichrome blue dye.
The reduction of collagen deposition was further analyzed by measuring the levels of hydroxyproline, a key component of collagen.

[13] = test system: IR-induced pneumonitis; assay: GLA tablets in a lung cancer patient receiving 2nd IR treatment; format: in vivo; settings: one patient
Method: In collaboration with radiation oncologists at the First Affiliated Hospital of Fujian Medical School in China, GLA tablets (produced by Minophagen Co. in Japan and available in pharmacies in China) were administered to a patient who received their 2nd IR treatment for lung cancer. […] To control the progression of pneumonitis, they received dexamethasone treatment. Due to tumor re-growth 9 months after their 1st IR treatment, they received a 2nd IR treatment with warnings that IR may worsen pneumonitis.
In order to mitigate IR-induced lung injury, GLA was administered at a does of 150 mg per day (equivalent to GA about 85 mg per day) starting from the date of 2nd treatment for 3 months. The result was unexpectedly surprising.

In the case of `NCCCNCCSP(=O)(O)O` [amifostine, reference compound], the “levels of inflammatory mediators (IL1a, TNFa, PF4, VCAM-1) in lung homogenates” value (shortened to “levels of inflammatory mediators”) [1] is reported as “extent of inhibition by GA was comparable” and the “plasma exudation and inflammatory cell infiltration into the interstitial space” value [2] is reported as “produced similar treatment effects”.
In the case of `Cc1ccc(-c2cc(C(F)(F)F)nn2-c2ccc(S(N)(=O)=O)cc2)cc1` [celebrex, reference compound], the “levels of inflammatory mediators” value [1] is reported as “extent of inhibition by GA was comparable”, the “plasma exudation and inflammatory cell infiltration into the interstitial space” value [2] is reported as “produced similar treatment effects” and the “lung density (abnormal increase)” value [3] is reported as “reduction in lung density by GA is more potent that of celebrex”. The body weight ([4]; 7.5 months post IR 15 Gy, vehicle-treated mice lost 6-7 g) was “less severe loss of BW”.
For `C[C@@H]1C[C@H]2[C@@H]3CCC4=CC(=O)C=C[C@]4(C)[C@@]3(F)[C@@H](O)C[C@]2(C)[C@@]1(O)C(=O)CO` [dexamethasone, reference compound], the “plasma growth hormone (GH) level” value [5] was “increased”, the “reduction in plasma ACTH levels” value [5] was 10-50 fold and the “course of pulmonary fibrosis and survival” value [6] was “may result in worsening of pulmonary fibrosis, leading to lung failure or even earlier death”.
With glycyrrhetinic acid [GA] the “levels of inflammatory mediators” value [1] was “effectively reduced levels of IMs; also recorded: inhibition effects”, the “plasma exudation and inflammatory cell infiltration into the interstitial space” value [2] was “potently suppressed; also recorded: reduces inflammatory cell infiltration and plasma exudation” and the “plasma levels of IL1a” value [7] was “effectively reduced; also recorded: reduces plasma levels of SP-D and ILa”. For the same compound, the “plasma levels of SP-D” value [7] was “effectively reduced; also recorded: reduces plasma levels of SP-D”, the “infiltration of neutrophils into the interstitial fluid (lung tissue)” value ([8]; 17 days after IR 15 Gy) was “suppression of infiltration of neutrophils; also recorded: mitigates the sub-acute phase of IR-induced pneumonitis” and the “myeloperoxidase (MPO) activity in BALF” value ([8]; 17 days after IR 15 Gy, P<0.05) was “reduces”. The “neutrophils infiltrated into bronchoalveolar lavage fluid” value ([8]; 17 days after IR 15 Gy, P<0.05) was “reduced; also recorded: reduces the number of neutrophils”, the “levels of lymphotactin and p-selectin” value ([8]; 17 days after IR exposure, P<0.05) was “reduced; also recorded: reduces the levels of inflammatory mediators” and the “levels of IL1a, TNFa, lymphotactin and p-selectin” value [9] was “potently reduced; also recorded: inhibits inflammatory responses”. For the same compound, the respiratory rate ([10]; 5 months after IR 18 Gy) was “reduction of respiratory rate”, the respiratory rate ([10]; 7 months after IR 15 Gy, GA 30-40 mg/kg q.o.d. or twice/week for 3 months, P<0.05) was “effectively reduced; also recorded: reduction of respiratory rate” and the “Mean Density (lung density)” value ([3]; 1 year post IR exposure at 18 Gy, normal control −454, IR without treatment −364) was −458 HU. For the same compound, the “lung density (abnormal increase)” value [3] was “significantly reduced; also recorded: reduces lung density”, the lung compliance [11] was “potently, and mostly effectively, enhanced” and the “lung morphology (H&E stain)” value ([12]; GA 40 mg/kg/q.o.d. for 3 months, 7 months after IR 15 Gy) was “near-normal morphology; also recorded: mitigates IR-induced pulmonary fibrosis”. The “collagen deposition (trichrome blue dye)” value ([12]; IR-exposed mice) was “reduces collagen deposition; also recorded: mitigates IR-induced lung fibrosis”, the “level of TGFβ” value ([12]; IR-exposed mice) was “reduced” and the “hydroxyproline levels in the lungs” value ([12]; vs IR + vehicle control, P<0.05) was “reduced; also recorded: reduces collagen deposition”. The death during treatment ([4]; long-term GA treatment) was “No mouse died”, the “side effects (activity, fur morphology, body weight)” value ([4]; long-term use) was “little side effects” and the “plasma growth hormone (GH) level” value [5] was “increased”. The “plasma ACTH levels” value ([5]; 40 mg/kg) was “rapidly returned to normal”.
For glycyrrhizic acid [GLA], the “symptoms of pneumonitis or fibrosis” value ([13]; 150 mg per day for 3 months from 2nd IR treatment) was “did not exhibit any symptom of pneumonitis or fibrosis; also recorded: mitigates pneumonitis” and the “lung density (CT)” value ([13]; CT of 1st vs 2nd IR treatment) was “significantly reduced”.
